ChEMBL document CHEMBL1140457, “(1R,2S)-4-(2-cyano-cyclohexyl-oxy)-2-trifluoromethyl-benzonitrile, a potent androgen receptor antagonist for stimulating hair growth and reducing sebum production” (Bioorg Med Chem Lett, 2007)
Calls of active or inactive are those of the source. The calls are words filed in the database; no cut-off is given here.

How the values were obtained:
Androgen receptor [1] = target: T1, Androgen receptor (Homo sapiens, UniProt P10275); assay: Displacement of [3H]DHT from androgen receptor expressed in Sf9 cells
T1 sequence (P10275 whole entry): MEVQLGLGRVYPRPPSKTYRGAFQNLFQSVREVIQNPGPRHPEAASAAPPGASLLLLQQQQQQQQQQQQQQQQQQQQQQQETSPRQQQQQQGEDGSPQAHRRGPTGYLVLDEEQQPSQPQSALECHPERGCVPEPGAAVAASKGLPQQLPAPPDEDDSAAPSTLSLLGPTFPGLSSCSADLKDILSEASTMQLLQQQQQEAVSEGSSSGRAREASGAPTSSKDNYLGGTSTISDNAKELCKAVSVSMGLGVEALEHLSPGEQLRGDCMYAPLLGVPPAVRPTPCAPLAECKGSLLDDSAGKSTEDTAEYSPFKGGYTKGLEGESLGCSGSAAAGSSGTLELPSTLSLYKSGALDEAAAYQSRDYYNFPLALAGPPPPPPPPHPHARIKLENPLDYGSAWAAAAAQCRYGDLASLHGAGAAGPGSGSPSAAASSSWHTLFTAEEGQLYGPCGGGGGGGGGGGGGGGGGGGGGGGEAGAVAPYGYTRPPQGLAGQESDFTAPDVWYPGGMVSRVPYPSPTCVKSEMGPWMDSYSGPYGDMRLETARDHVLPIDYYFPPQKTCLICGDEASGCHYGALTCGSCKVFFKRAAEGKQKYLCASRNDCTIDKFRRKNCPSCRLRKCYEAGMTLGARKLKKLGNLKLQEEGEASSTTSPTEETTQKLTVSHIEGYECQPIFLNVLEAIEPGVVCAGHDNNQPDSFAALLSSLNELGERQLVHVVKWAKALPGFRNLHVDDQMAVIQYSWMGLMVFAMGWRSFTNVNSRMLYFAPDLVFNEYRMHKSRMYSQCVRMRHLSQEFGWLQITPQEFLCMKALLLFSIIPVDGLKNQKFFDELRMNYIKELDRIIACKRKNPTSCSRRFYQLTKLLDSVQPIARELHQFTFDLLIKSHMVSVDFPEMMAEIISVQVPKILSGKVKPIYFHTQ

Androgen receptor [2] = target: T1, Androgen receptor; assay: Antagonist activity at androgen receptor expressed in MDA-MB-453 cells assessed as inhibition of dihydrotestosterone-induced response in reporter gene assay; format: functional, cell-based
Syrian golden hamster [3] = assay: Reduction of sebum production in topically dosed Syrian hamster ear model administered twice daily for 2 weeks; format: functional, Mesocricetus auratus
[4] = Half life in Sprague-Dawley rat at 1 mg/kg, iv; format: ADME, organism-based; design: dose 1 mg/kg, route intravenous; conditions: in vivo
[5] = Metabolic stability in Sprague-Dawley rat hepatocytes assessed as hepatic extraction ratio at 1 uM; format: ADME, cell-based, Hepatocyte; conditions: read-out: Stability
[6] = Plasma clearance in Sprague-Dawley rat at 1 mg/kg, iv; format: ADME, organism-based; design: dose 1 mg/kg, route intravenous
[7] = Metabolic stability in Beagle dog hepatocytes assessed as hepatic extraction ratio at 1 uM; format: ADME, cell-based, Canis lupus familiaris, Hepatocyte; conditions: read-out: Stability
Syrian golden hamster [8] = assay: Reduction of sebaceous gland size in topically dosed Syrian hamster ear model administered twice daily for 2 weeks; format: functional, organism-based; conditions: Mesocricetus auratus
Mus musculus = assay: Stimulation of hair growth in topically dosed C3H/HeN mouse model administered twice daily for 4 weeks; format: functional, organism-based
[9] = Volume of distribution at steady state in Sprague-Dawley rat at 1 mg/kg, iv; format: ADME, organism-based; design: dose 1 mg/kg, route intravenous; conditions: in vivo, read-out: Vdss
[10] = Metabolic stability in human hepatocytes assessed as hepatic extraction ratio at 1 uM; format: ADME, cell-based, Hepatocyte; conditions: read-out: Stability
Syrian golden hamster [11] = assay: Reduction of sebum production in topically dosed Syrian hamster ear model administered at 0.5% concentration twice daily for 2 weeks; format: functional, Mesocricetus auratus; design: scale not given: the % may be the effect or the level left

Compound `N#Cc1ccc(OC2CCCCC2C#N)cc1C(F)(F)F` (racemic) has an IC50 (Androgen receptor [1]) of 58 nM and an IC50 (Androgen receptor [2]) of 13 nM.

`N#Cc1ccc(O[C@@H]2CCCC[C@H]2C#N)cc1C(F)(F)F` showed an ED50 (Syrian golden hamster [3]) of 0.1%, a half-life [4] of 1.6 h and a hepatic extraction ratio at 1 µM [5] of 0.88. The IC50 (Androgen receptor [1]) was 60 nM, the clearance [6] was 71 mL/min/kg and the hepatic extraction ratio at 1 µM [7] was 0.92. The Activity (Syrian golden hamster [8]) was “Active”, the IC50 (Androgen receptor [2]) was 12 nM and the Activity (Mus musculus) was “Dose-dependent effect”. The Vd [9] was 6.5 L/kg and the hepatic extraction ratio at 1 µM [10] was 0.57.

Compound `N#Cc1ccc(O[C@H]2CCCC[C@@H]2C#N)cc1C(F)(F)F` has an IC50 (Androgen receptor [1]) of 43 nM and an IC50 (Androgen receptor [2]) of 196 nM.

With `CC1(C)C(=O)N(c2ccc(C#N)c(C(F)(F)F)c2)C(=O)N1CCCCO` [RU-58841] the Activity (Syrian golden hamster [11]) was 91%.
